*1 amine or outer side, *2 acyl side, *3 side chain or, on linkers, in order; H or OH if unused. Where a SMILES comes first, the peptide text is derived from it. Side-chain parts run from the residue outwards. The star is where a group is joined. C20 diacid = O=C(O)CCCCCCCCCCCCCCCCCCC(=O)*; C18 diacid = O=C(O)CCCCCCCCCCCCCCCCC(=O)*; γGlu = O=C(O)[C@H](CCC(=O)[*:2])N[*:1]; Trx = NC[C@H]1CC[C@H](C(=O)O)CC1; AEEA = NCCOCCOCC(=O)O
How the values were obtained:
[1] = target: T1, Y2 receptor (Homo sapiens, UniProt P49146); test: Y2 receptor ACTOne based FLIPR assay (cAMP biosensor); format: cell-based; conditions: Table 2, PP analogues; ACTOne HEK-293 cells; read-out: Y2 cAMP EC50
T1 construct: host or cells: ACTOne HEK-293 cells
T1 sequence (P49146 1-381): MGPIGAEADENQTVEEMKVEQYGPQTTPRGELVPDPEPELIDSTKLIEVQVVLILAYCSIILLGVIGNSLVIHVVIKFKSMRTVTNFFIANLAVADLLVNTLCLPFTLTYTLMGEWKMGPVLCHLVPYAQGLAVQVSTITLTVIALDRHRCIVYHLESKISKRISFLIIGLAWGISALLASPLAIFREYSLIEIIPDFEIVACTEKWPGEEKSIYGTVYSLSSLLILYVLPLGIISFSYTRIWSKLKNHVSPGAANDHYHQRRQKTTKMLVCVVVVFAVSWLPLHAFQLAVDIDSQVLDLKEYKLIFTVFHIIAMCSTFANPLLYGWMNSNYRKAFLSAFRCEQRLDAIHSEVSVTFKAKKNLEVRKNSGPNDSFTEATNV
Excerpt: ACTOne™ is an easily scaleable cAMP biosensor HTS platform for measurement of Gs and Gi coupled 7™ receptor signalling from BD Biosciences (San Jose, Calif.). The cells express a biosensor developed around a modified rat olfactory cyclic nucleotide gated (CNG) calcium channel—a fairly non-discriminatory ion channel that responds to cAMP and cGMP. The CNG has been engineered to be cAMP selective and thus function as a cAMP responsive biosensor that signals through calcium or membrane potential responsive dyes. Y2 or Y4 receptor expressing ACTOne HEK-293 cells are obtained from BD Biosciences. The cells are loaded with a calcium responsive dye that only distributes in the cytoplasm. Probenecid, an inhibitor of the organic anion transporter is added to prevent the dye from leaving the cell. A phosphodiesterase inhibitor is added to prevent formatted cAMP from being degraded. Isoproterenol (an β1/β2 agonist) is added to activate the adenylate cyclase. When an Y2 or Y4 receptor agonist is added, the adenylate cyclase is inactivated. The decreased calcium concentration in the cytoplasm is then detected as an increase in fluorescence. Together with the test substance, Isoproterenol at a concentration matching EC80, is added to all wells. • The cells are plated out in Greiner 384-well plates. […] The plates are covered with tinfoil to avoid light (the dye can be excited by the daylight, which results in higher baseline and variation). • The FLIPR (FLIPRtetra from Molecular Devices, CA, USA) adds 1 μl sample and 1 μl isoproterenol (0.05 μM final concentration) at the same time. • The fluorescence signal from the wells is measured 330 seconds after sample addition on the FLIPR.

[2] = in vivo; conditions: Göttingen, minipig, iv
Description: (§1) The mini-pigs had two central venous catheters inserted which were used for intra venous (i.v.) dosing and bloodsampling. Compound was dissolved in 50 mM K2HPO4, 0.05% tween 80, pH=8.0 to a concentration of 180 nmol/ml. The pigs were dosed with 6 nmol compound/kg body weight. […] The blood samples were collected into test tubes containing EDTA buffer for stabilization and kept on ice for max. 20 minutes before centrifugation. The centrifugation procedure to separate plasma was; 4° C., 3000 rpm for 10 minutes. Plasma were collected and immediately transferred to Micronic tubes stored at −20° C. until assayed.
An additional mini-pig PK assay was used for measuring PK of the compounds of the invention. […] The animals had two central venous catheters inserted which were used for intra venous (i.v.) dosing and blood sampling. Compounds were dissolved in 10 mM Na2HPO4, 150 mM NaCl, 0.01% tween 80, pH=4.0 to concentrations in the range of 40 nmol/ml to 200 nmol/ml. The mini-pigs were dosed i.v. with 10 nmol compound/kg body weight, occasionally other doses such as 4 nmol/kg, 30 nmol/kg or 50 nmol/kg were administered. Each compound was dosed to 3 or 4 mini-pigs, and two compounds may be given simultaneously to the same animal. Blood were sampled pre-dose and 12 times during the first 10 hours post-dose. Blood were furthermore sampled once daily until 13 days post dosing. The blood samples were collected into test tubes containing EDTA buffer, trasylol and Val-Pyr for stabilization and kept on ice for max. 20 minutes. Samples were centrifuged at 4° C., 2000G for 10 minutes to separate plasma. Plasma were collected and immediately transferred to Micronic tubes stored at −20° C. until assayed.
Plasma samples were analysed by LC-MS on an LTQ-Orbitrap (ThermoFisher Scientific, Bremen) to which Accela HPLC pumps and an autosampler were connected (both from ThermoFisher). […] HPLC was performed on a Jupiter Proteo column (4μ) 90A (50×2.0 mm ID). […] The flow rate was 0.3 ml/min. For analysis of plasma samples, 30 μl plasma was precipitated with 90 μl ethanol. […] The heptane phase was removed after 5 min and the remaining solution was analysed by LC-MS as described above. For construction of plasma standards, compound was spiked to plasma (minipig) at the following concentrations: 1 nM, 2 nM, 5 nM, 10 nM, 20 nM, 50 nM, 100 nM, 200 nM. The plasma standards were treated as the samples. The lower limit of quantification was estimated to 2 nM.
Non-compartmental analysis (NCA): Plasma concentration-time profiles were analyzed by non-compartmental pharmacokinetics analysis (NCA) using WinNonlin Professional 5.0 (Pharsight Inc., Mountain View, Calif., USA). NCA was performed using the individual plasma concentration-time profiles from each animal.
For determination of plasma concentration of the PYY and PP peptide derivative or analogues thereof the following Methods 1-4 were used.
as §1, with “bloodsampling. The compound” for “bloodsampling. Compound”, “to an appropriate” for “to a”, “concentration (e.g. 25-500 nmol/mL).” for “concentration of 180 nmol/ml.”, “dosed intravenously (i.v.) or subcutaneously (s.c.)” for “dosed”, “with between 1 and 30” for “with 6”, “buffer (with Aprotinin 15000 KIE/mL and Val-Pyr 0.30 mM)” for “buffer”
An additional mini-pig PK assay was used for measuring PK of the compounds of the invention. […] The animals had two central venous catheters inserted which were used for intra venous (i.v.) dosing and blood sampling.

SMILES: CC[C@H](C)[C@H](NC(=O)[C@H](Cc1ccc(O)cc1)NC(=O)[C@H](CCCNC(=N)N)NC(=O)[C@H](CCCNC(=N)N)NC(=O)[C@H](CC(C)C)NC(=O)[C@H](CC(=O)O)NC(=O)[C@H](C)NC(=O)[C@H](C)NC(=O)[C@H](Cc1ccc(O)cc1)NC(=O)[C@H](CCC(N)=O)NC(=O)[C@H](CCCCNC(=O)COCCOCCNC(=O)COCCOCCNC(=O)CC[C@H](NC(=O)CCCCCCCCCCCCCCCCC(=O)O)C(=O)O)NC(=O)[C@H](CC(C)C)NC(=O)[C@H](CCC(N)=O)NC(=O)[C@H](CCC(=O)O)NC(=O)[C@@H]1CCCN1C(=O)[C@@H](NC(=O)[C@H](C)NC(=O)[C@H](CC(N)=O)NC(=O)[C@H](CC(=O)O)NC(=O)CNC(=O)[C@@H]1CCCN1C(=O)[C@H](Cc1ccc(O)cc1)NC(=O)[C@@H](NC(=O)[C@@H]1CCCN1C(=O)[C@H](CCC(=O)O)NC(=O)[C@H](CC(C)C)NC(=O)[C@@H]1CCCN1)C(C)C)[C@@H](C)O)C(=O)N[C@@H](CC(N)=O)C(=O)N[C@@H](CC(C)C)C(=O)N[C@@H](CC(C)C)C(=O)N[C@H](C(=O)N[C@@H](CCCNC(=N)N)C(=O)N1CCC[C@H]1C(=O)N[C@@H](CCCNC(=N)N)C(=O)N[C@@H](Cc1ccc(O)cc1)C(N)=O)[C@@H](C)O [SEQ ID NO: 32, N-epsilon18-[2-(2-{2-[2-(2-{2-[(S)-4-Carboxy-4-(17-carboxyheptadecanoylamino)butyrylamino]ethoxy}ethoxy)acetylamino]-ethoxy}ethoxy)acetyl][Lys18,Leu17,Leu30]hPP2-36] (H-PLEPVYPGDNATPEQLK([AEEA-AEEA-γGlu-C18 diacid])QYAADLRRYINLLTRPRY-NH2; N-terminus and C-terminus assumed)
- EC50 [1]: > 1000 nM
- half-life ([2]; 12 nmol/kg): 46 h

SMILES: CC[C@H](C)[C@H](NC(=O)[C@H](Cc1ccc(O)cc1)NC(=O)[C@H](CCCNC(=N)N)NC(=O)[C@H](CCCNC(=N)N)NC(=O)[C@H](CC(C)C)NC(=O)[C@H](CC(=O)O)NC(=O)[C@H](C)NC(=O)[C@H](C)NC(=O)[C@H](Cc1ccc(O)cc1)NC(=O)[C@H](CCC(N)=O)NC(=O)[C@H](CCCCNC(=O)COCCOCCNC(=O)COCCOCCNC(=O)CC[C@H](NC(=O)[C@H]1CC[C@H](CNC(=O)CCCCCCCCCCCCCCCCCCC(=O)O)CC1)C(=O)O)NC(=O)[C@H](CC(C)C)NC(=O)[C@H](CCC(N)=O)NC(=O)[C@H](CCC(=O)O)NC(=O)[C@@H]1CCCN1C(=O)[C@@H](NC(=O)[C@H](C)NC(=O)[C@H](CC(N)=O)NC(=O)[C@H](CC(=O)O)NC(=O)CNC(=O)[C@@H]1CCCN1C(=O)[C@H](Cc1ccc(O)cc1)NC(=O)[C@@H](NC(=O)[C@@H]1CCCN1C(=O)[C@H](CCC(=O)O)NC(=O)[C@H](CC(C)C)NC(=O)[C@@H]1CCCN1)C(C)C)[C@@H](C)O)C(=O)N[C@@H](CC(N)=O)C(=O)N[C@@H](CC(C)C)C(=O)N[C@@H](CC(C)C)C(=O)N[C@H](C(=O)N[C@@H](CCCNC(=N)N)C(=O)N1CCC[C@H]1C(=O)N[C@@H](CCCNC(=N)N)C(=O)N[C@@H](Cc1ccc(O)cc1)C(N)=O)[C@@H](C)O [SEQ ID NO: 43, N-epsilon18-[2-(2-{2-[2-(2-{2-[(S)-4-Carboxy-4-({trans-4-[(19-carboxynonadecanoylamino)methyl]cyclohexanecarbonyl}amino)butyrylamino]-ethoxy}ethoxy)acetylamino]ethoxy}ethoxy)acetyl][Leu17,Lys18,Leu30]hPP2-36] (H-PLEPVYPGDNATPEQLK([AEEA-AEEA-γGlu-Trx-C20 diacid])QYAADLRRYINLLTRPRY-NH2; N-terminus and C-terminus assumed)
- EC50 [1]: > 1000 nM
- half-life ([2]; 13.5 nmol/kg): 55 h

SMILES: CC[C@H](C)[C@H](NC(=O)[C@H](Cc1ccc(O)cc1)NC(=O)[C@H](CCCCNC(=O)COCCOCCNC(=O)COCCOCCNC(=O)CC[C@H](NC(=O)CCCCCCCCCCCCCCCCC(=O)O)C(=O)O)NC(=O)[C@H](CCCNC(=N)N)NC(=O)[C@H](CC(C)C)NC(=O)[C@H](CC(=O)O)NC(=O)[C@H](C)NC(=O)[C@H](C)NC(=O)[C@H](Cc1ccc(O)cc1)NC(=O)[C@H](CCC(N)=O)NC(=O)[C@H](C)NC(=O)[C@H](CC(C)C)NC(=O)[C@H](CCC(N)=O)NC(=O)[C@H](CCC(=O)O)NC(=O)[C@@H]1CCCN1C(=O)[C@@H](NC(=O)[C@H](C)NC(=O)[C@H](CC(N)=O)NC(=O)[C@H](CC(=O)O)NC(=O)CNC(=O)[C@@H]1CCCN1C(=O)[C@H](Cc1ccc(O)cc1)NC(=O)[C@@H](NC(=O)[C@@H]1CCCN1C(=O)[C@H](CCC(=O)O)NC(=O)[C@H](CC(C)C)NC(=O)[C@@H]1CCCN1)C(C)C)[C@@H](C)O)C(=O)N[C@@H](CC(N)=O)C(=O)N[C@@H](CC(C)C)C(=O)N[C@@H](CC(C)C)C(=O)N[C@H](C(=O)N[C@@H](CCCNC(=N)N)C(=O)N1CCC[C@H]1C(=O)N[C@@H](CCCNC(=N)N)C(=O)N[C@@H](Cc1ccc(O)cc1)C(N)=O)[C@@H](C)O [SEQ ID NO: 46, N-epsilon26-[2-(2-{2-[2-(2-{2-[(S)-4-Carboxy-4-(17-carboxyheptadecanoylamino)butyrylamino]ethoxy}ethoxy)acetylamino]-ethoxy}ethoxy)acetyl][Leu17,Lys26,Leu30]hPP2-36] (H-PLEPVYPGDNATPEQLAQYAADLRK([AEEA-AEEA-γGlu-C18 diacid])YINLLTRPRY-NH2; N-terminus and C-terminus assumed)
- EC50 [1]: > 1000 nM
- half-life ([2]; 4 nmol/kg): 62 h

— patent US20110275559A1, “Long-Acting Y2 and/or Y4 Receptor Agonists” (Novo Nordisk A/S, priority 2008, published 2011)
